Source: patent US9693556B2, “Herbicidal pyridazinone derivatives” (SYNGENTA LIMITED, priority 2011, dated 2017)

Experiments:
Assay type in all cases: in vivo
Setaria faberi (SETFA) [1] = assay: Pre-emergence herbicidal glasshouse test on Setaria faberi; settings: pre-emergence; 1000 g/h; evaluated after 13 days
In short: (§1)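 Scoring scale: 5=80-100%, 4=60-79%, 3=40-59%, 2=20-39%, 1=0-19% damage, assessed on day 13. Compound sprayed at 1000 g/h on soil-grown plants (day 1 pre-, day 8 post-emergence) kept at 24/16 °C, 14 h light.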

[2] = tested on: Alopecurus myosuroides (ALOMY); assay: Pre-emergence herbicidal glasshouse test on Alopecurus myosuroides; settings: pre-emergence; 1000 g/h; evaluated after 13 days
In short: as §1

[3] = tested on: Echinochloa crus-galli (ECHCG); assay: Post-emergence herbicidal glasshouse test on Echinochloa crus-galli; settings: post-emergence; 1000 g/h; evaluated after 13 days
In short: as §1

[4] = tested on: Ipomoea hederacea (IPOHE); assay: Pre-emergence herbicidal glasshouse test on Ipomoea hederacea; settings: pre-emergence; 1000 g/h; evaluated after 13 days
In short: as §1

[5] = tested on: Amaranthus retoflexus (AMARE); assay: Pre-emergence herbicidal glasshouse test on Amaranthus retoflexus; settings: pre-emergence; 1000 g/h; evaluated after 13 days
In short: as §1

[6] = tested on: Amaranthus retoflexus (AMARE); assay: Post-emergence herbicidal glasshouse test on Amaranthus retoflexus; settings: post-emergence; 1000 g/h; evaluated after 13 days
In short: as §1

[7] = tested on: Echinochloa crus-galli (ECHCG); assay: Pre-emergence herbicidal glasshouse test on Echinochloa crus-galli; settings: pre-emergence; 1000 g/h; evaluated after 13 days
In short: as §1

Setaria faberi (SETFA) [8] = assay: Post-emergence herbicidal glasshouse test on Setaria faberi; settings: post-emergence; 1000 g/h; evaluated after 13 days
In short: as §1

[9] = tested on: Alopecurus myosuroides (ALOMY); assay: Post-emergence herbicidal glasshouse test on Alopecurus myosuroides; settings: post-emergence; 1000 g/h; evaluated after 13 days
In short: as §1

Solanum nigrum (SOLNI) [10] = assay: Pre-emergence herbicidal glasshouse test on Solanum nigrum; settings: pre-emergence; 1000 g/h; evaluated after 13 days
In short: as §1

[11] = tested on: Ipomoea hederacea (IPOHE); assay: Post-emergence herbicidal glasshouse test on Ipomoea hederacea; settings: post-emergence; 1000 g/h; evaluated after 13 days
In short: as §1

Solanum nigrum (SOLNI) [12] = assay: Post-emergence herbicidal glasshouse test on Solanum nigrum; settings: post-emergence; 1000 g/h; evaluated after 13 days
In short: as §1

SMILES | PRE Application SETFA herbicidal damage (five point scale) (Setaria faberi (SETFA) [1]) | PRE Application ALOMY herbicidal damage (five point scale) [2] | POST Application ECHCG herbicidal damage (five point scale) [3] | PRE Application IPOHE herbicidal damage (five point scale) [4] | PRE Application AMARE herbicidal damage (five point scale) [5] | POST Application AMARE herbicidal damage (five point scale) [6] | PRE Application ECHCG herbicidal damage (five point scale) [7] | POST Application SETFA herbicidal damage (five point scale) (Setaria faberi (SETFA) [8]) | POST Application ALOMY herbicidal damage (five point scale) [9] | PRE Application SOLNI herbicidal damage (five point scale) (Solanum nigrum (SOLNI) [10]) | POST Application IPOHE herbicidal damage (five point scale) [11] | POST Application SOLNI herbicidal damage (five point scale) (Solanum nigrum (SOLNI) [12])
CC[S+]([O-])c1ccccc1-c1cnn(C)c(=O)c1O (stereo not drawn) [Compound 1.041] | 2 (2=20-39% damage) | 3 (3=40-59% damage) | 5 (5=80-100% damage) | 1 (1=0-19% damage) | 4 (4=60-79% damage) | 5 (5=80-100% damage) | 4 (4=60-79% damage) | 5 (5=80-100% damage) | 4 (4=60-79% damage) | 2 (2=20-39% damage) | 5 (5=80-100% damage) | 5 (5=80-100% damage)
CCS(=O)(=O)c1ccccc1-c1cnn(C)c(=O)c1O [Compound 1.042] | 5 (5=80-100% damage) | 5 (5=80-100% damage) | 5 (5=80-100% damage) | 1 (1=0-19% damage) | 5 (5=80-100% damage) | 5 (5=80-100% damage) | 5 (5=80-100% damage) | 5 (5=80-100% damage) | 5 (5=80-100% damage) | 5 (5=80-100% damage) | 4 (4=60-79% damage) | 5 (5=80-100% damage)
CC(C)[S+]([O-])c1ccccc1-c1cnn(C)c(=O)c1O (stereo not drawn) [Compound 1.043] | 1 (1=0-19% damage) | 1 (1=0-19% damage) | 4 (4=60-79% damage) | 1 (1=0-19% damage) | 1 (1=0-19% damage) | 5 (5=80-100% damage) | 1 (1=0-19% damage) | 4 (4=60-79% damage) | 2 (2=20-39% damage) | 1 (1=0-19% damage) | 4 (4=60-79% damage) | 5 (5=80-100% damage)
CC(C)S(=O)(=O)c1ccccc1-c1cnn(C)c(=O)c1O [Compound 1.044] | 5 (5=80-100% damage) | 5 (5=80-100% damage) | 5 (5=80-100% damage) | 1 (1=0-19% damage) | 5 (5=80-100% damage) | 5 (5=80-100% damage) | 5 (5=80-100% damage) | 5 (5=80-100% damage) | 5 (5=80-100% damage) | 5 (5=80-100% damage) | 5 (5=80-100% damage) | 5 (5=80-100% damage)
Cc1c(Cl)ccc(-c2cnn(C)c(=O)c2O)c1F [Compound 1.045] | 1 (1=0-19% damage) | 1 (1=0-19% damage) | 1 (1=0-19% damage) | 1 (1=0-19% damage) | 1 (1=0-19% damage) | 2 (2=20-39% damage) | 1 (1=0-19% damage) | 1 (1=0-19% damage) | 1 (1=0-19% damage) | 1 (1=0-19% damage) | 1 (1=0-19% damage) | 4 (4=60-79% damage)
Cn1ncc(-c2ccccc2S(C)(=O)=O)c(O)c1=O [Compound 1.046] | 3 (3=40-59% damage) | 5 (5=80-100% damage) | 5 (5=80-100% damage) | 1 (1=0-19% damage) | 5 (5=80-100% damage) | 5 (5=80-100% damage) | 5 (5=80-100% damage) | 5 (5=80-100% damage) | 5 (5=80-100% damage) | 5 (5=80-100% damage) | 5 (5=80-100% damage) | 5 (5=80-100% damage)
CCCC[S+]([O-])c1ccccc1-c1cnn(C)c(=O)c1O (stereo not drawn) [Compound 1.047] | 1 (1=0-19% damage) | 1 (1=0-19% damage) | 1 (1=0-19% damage) | 1 (1=0-19% damage) | 1 (1=0-19% damage) | 3 (3=40-59% damage) | 1 (1=0-19% damage) | 1 (1=0-19% damage) | 1 (1=0-19% damage) | 1 (1=0-19% damage) | 3 (3=40-59% damage) | 4 (4=60-79% damage)
